# System: mice
# Details: mouse, in vivo, ip
smiles,measurement,value
COC(=O)C1c2cc3c(c(O)c2C(OC2CC(OC)C(OC4CC(O)C(OC5CC(OC)C(OC6CC(OC)C(OC(=O)C=CC(=O)O)C(C)O6)C(C)O5)C(C)O4)C(C)O2)CC1(C)O)C(=O)c1c(O)cc2c(c1C3=O)OC1OC2(C)C(OC2CC(O)C(OC3CC(C)([N+](=O)[O-])C(OC4CC(OC)C(O)C(C)O4)C(C)O3)C(C)O2)C(N(C)C)C1O (stereo not shown) [Arugomycin],LD50,1.75 mg/kg
